We go through 22 molecules from patent US20230339866A1, “Quinazoline compounds and the use thereof in the treatment of cancer” (TROBIO THERAPEUTICS PTY LTD, priority 2020, published 2023).

One series relates to A2780 (ovarian). Briefly: Anti-proliferative activity (Cell-Titre luminescence) against A2780 ovarian cancer cells. Type of series: cell-based. The conditions noted are these: 72 h exposure, Cell-Titre luminescent reagent. Put shortly: (§1)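 Cells grown 24 h at 37 °C, 5% CO2, then exposed 72 h to compound at 30, 10, 3, 1, 0.3 and 0.1 μM. Viability by Cell-Titre luminescence (30 min), normalised to vehicle; EC50 from variable-slope sigmoidal nonlinear regression.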

Another series relates to A549 (NSCLC). Put plainly: Anti-proliferative activity (Cell-Titre luminescence) against A549 non-small cell lung cancer cells. Type of series: cell-based. The following applies: 72 h exposure, Cell-Titre luminescent reagent. In a few lines: as §1
The next series deals with Tpm3.1 (Homo sapiens, UniProt P06753). Put plainly: Circular dichroism spectroscopy, thermal unfolding of Tpm3.1 peptides. Type of series: binding. On the set-up: N-terminus (residues 2-80 with an initial Ala-Gly dipeptide to mimic N-terminal acetylation) of Tpm3.1; Peptides corresponding to the C-terminus (residues 139-248) and N-terminus; made in house. The following applies: test compound 100 μM, peptide 20 μM, CD at 222 nm. The protocol: The interactions of compounds 11, 13, 32 and 92 with the N-terminus and overlap region of Tpm3.1 were measured using circular dichroism (CD) spectroscopy (see FIG. 1). Peptides corresponding to the C-terminus (residues 139-248) and N-terminus (residues 2-80 with an initial Ala-Gly dipeptide to mimic N-terminal acetylation) of Tpm3.1 were prepared as described in the literature (Janco et al., 2019). CD spectra and thermal unfolding isotherms of N_82AA_Tpm3.1 and C_109AA_Tpm3.1 peptides were acquired on a Chirascan Plus CD Spectrometer (Applied Photophysics Limited, U.K.) in stoppered 0.5 mm cuvettes (48/Q/0.5; Starna Scientific Ltd.). Proteins were dialyzed O/N against 10 mM NaH2 PO4, 150 mM NaCl, 75 μM TCEP (added prior to experiment), 1% (v/v) acetonitrile pH 7 buffer. Final concentration of peptides was 20 μM. Tpm samples containing the test compound (100 μM) were incubated at 37° C. O/N. CD spectra were measured from 195 to 260 nm with a 1 nm step size and a […], taking 3 to 4 averages at 37° C. The thermal unfolding was carried at 222 nm over the range 20-85° C. at the rate of 1° C./min. Sample was cooled down to the initial temperature and heating procedure was repeated 2 to 3 times. To obtain information of the major thermal transitions from individual isotherms, data were further smoothed by the Savitzky-Golay method (5-point window), differentiated and then fitted to multiple Gaussian peaks as described previously (Janco et al., 2012) (FIG. 2).

The subject of series [1] is SK-N-SH neuroblastoma cells. Put plainly: Anti-proliferative activity (MTS assay) against SK-N-SH neuroblastoma cells. The class given is cell-based. The protocol:
The ability of compounds of the disclosure to inhibit the proliferation of SK-N-SH neuroblastoma cells was also assessed. […] Cell viability was normalised to control (vehicle alone) and dose response curves and IC50 values (Table 4) were determined using Graph Pad Prism 6.

Series [2] deals with A2780 ovarian cancer cells. The conditions noted are these: read-out: IC50 values used for the dose matrix (cytotoxic agents); A2780, single agent, MTS 72 hours.
Procedure: The A2780 cell line was maintained as a monolayer in Dulbeccos Modified Eagles medium (DMEM) supplemented with 10% foetal bovine serum (FBS) and grown at 37° C. in a humidified atmosphere with 5% CO2. […] Each screening plate contained one 6×6 dose matrix for two drugs using two-fold dilution steps. […] Viability was measured after 72 hours using a standard MTS assay.
Synergistic drug interactions were determined for each pairwise drug combination by applying the Bliss-independence model that assumes independence of drug mechanisms.
The Bliss additivism model was used to calculate a predicted combined response C to two single agents with responses A and B (using GI values), as follows:
The final score for any combination was reported as the difference between the value predicted by the additive model and the experimentally observed value, normalised to 100. Using GI values the maximum possible synergy score is 100, with 0 indicating no synergy and negative indicating possible antagonism. Scores were also reported as a “Max synergy” score, which is the highest individual synergy score for each combination matrix, and a “Total synergy” score, which was obtained by summation of each individual synergy score for the matrix.

In turn, `CN1CCN(CCNc2nc(-c3ccsc3)nc3ccccc23)CC1` [Compound 11, N-(2-(4-methylpiperazin-1-yl)ethyl)-2-(thiophen-3-yl)quinazolin-4-amine] showed an IC50 in the series on A2780 (ovarian) (Homo sapiens, A2780, 72 h) of 6.43 µM. The molecule also registered an IC50 in the series with A549 (NSCLC) (Homo sapiens, A549, 72 h) of 10.3 µM. For the same molecule, on Tpm3.1, the “Effect on melting profile of the Tpm3.1 N-terminal peptide construct” value (“Effect on melting profile” below) is recorded as “alter the melting profile”; the “Effect on stability (melting profile) of the overlap complex formed by the N- and C-terminal peptides” value is “decreasing”; the “Effect on stability of the Tpm3.1 N-terminal peptide” value was “decrease the stability”. In addition, the IC50 in series [1] (Homo sapiens, SK-N-SH, 72 h) came to 9.11 µM.
Take `CN1CCN(CCNc2nc(-c3cc[nH]c3)nc3ccccc23)CC1` [Compound 13, N-(2-(4-methylpiperazin-1-yl)ethyl)-2-(1H-pyrrol-3-yl)quinazolin-4-amine]: the IC50 is 5.65 µM in the series with A2780 (ovarian) (Homo sapiens, A2780, 72 h); 6.5 µM in the series with A549 (NSCLC) (Homo sapiens, A549, 72 h); 1.72 µM in series [1] (Homo sapiens, SK-N-SH, 72 h). Further, the “Effect on melting profile” value at Tpm3.1 is recorded as “alter the melting profile”. Besides, the “Effect on stability of the Tpm3.1 N-terminal peptide” value on Tpm3.1 is listed as “stabilizing effect”.
Take `OCCNc1nc(NCc2ccc(C(F)(F)F)cc2)nc2ccccc12` [Compound 32, 2-((2-((4-(trifluoromethyl)benzyl)amino)quinazolin-4-yl)amino)ethan-1-ol]: half-maximal inhibition in the series with A2780 (ovarian) (Homo sapiens, A2780, 72 h) (IC50) required 1.28 µM. In the series with A549 (NSCLC) (Homo sapiens, A549, 72 h), the IC50 turned out to be 4.63 µM. At Tpm3.1, the “Effect on melting profile” value is “alter the melting profile”; the “Effect on stability (melting profile) of the overlap complex formed by the N- and C-terminal peptides” value is “increasing”; the “Effect on stability of the Tpm3.1 N-terminal peptide” value is given as “decrease the stability”. The molecule further returned an IC50 in series [1] (Homo sapiens, SK-N-SH, 72 h) of 4.09 µM.
Regarding `Fc1cccc(Nc2nc(NCCc3c[nH]cn3)c3ccccc3n2)c1` [Compound 82, N^4-(2-(1H-imidazol-4-yl)ethyl)-N^2-(3-fluorophenyl)quinazoline-2,4-diamine], the IC50 is 1.88 µM in the series on A2780 (ovarian) (Homo sapiens, A2780, 72 h); 7.46 µM in the series on A549 (NSCLC) (Homo sapiens, A549, 72 h); 4.46 µM in series [1] (Homo sapiens, SK-N-SH, 72 h).
As to `Fc1cccc(Nc2nc(NCCc3c[nH]cn3)c3ccccc3n2)c1` [Compound 83, N^4-(2-(1H-imidazol-4-yl)ethyl)-N^2-(3-fluorophenyl)quinazoline-2,4-diamine], the IC50 came out at 2.2 µM with A2780 (ovarian), 9.16 µM in the series on A549 (NSCLC) and 3.88 µM in series [1] (72 hours).
Regarding `FC(F)(F)c1cccc(CCNc2nc(NCCc3c[nH]cn3)c3ccccc3n2)c1` [Compound 84, N^4-(2-(1H-imidazol-4-yl)ethyl)-N^2-(3-(trifluoromethyl)phenethyl)quinazoline-2,4-diamine], the IC50 is 1.51 µM in the series with A2780 (ovarian) (Homo sapiens, A2780, 72 h); 1.39 µM with A549 (NSCLC) (Homo sapiens, A549, 72 h); 1.26 µM in series [1] (Homo sapiens, SK-N-SH, 72 h).
`COc1ccc(CCNc2nc(NCCc3c[nH]cn3)c3ccccc3n2)cc1` [Compound 85, N^4-(2-(1H-imidazol-4-yl)ethyl)-N^2-(4-methoxyphenethyl)quinazoline-2,4-diamine]: the IC50 is 1.74 µM with A2780 (ovarian) (Homo sapiens, A2780, 72 h); 6.81 µM in the series with A549 (NSCLC) (Homo sapiens, A549, 72 h); 4.28 µM in series [1] (Homo sapiens, SK-N-SH, 72 h).
Take `CCc1ccc(CCNc2nc(NCCc3c[nH]cn3)c3ccccc3n2)cc1` [Compound 86, N^4-(2-(1H-imidazol-4-yl)ethyl)-N^2-(4-ethylphenethyl)quinazoline-2,4-diamine]: the IC50 with A2780 (ovarian) (Homo sapiens, A2780, 72 h) was 1.07 µM; with A549 (NSCLC) (Homo sapiens, A549, 72 h), 3.23 µM; in series [1] (Homo sapiens, SK-N-SH, 72 h) it was 2.17 µM.
The matching figures for `Fc1ccc(CCNc2nc(NCCc3c[nH]cn3)c3ccccc3n2)cc1` [Compound 88, N^4-(2-(1H-imidazol-4-yl)ethyl)-N^2-(4-fluorophenethyl)quinazoline-2,4-diamine]: 1.74 µM, 3.42 µM and 2.2 µM.
The matching figures for `CCc1ccc(CCNc2nc(NCCO)c3ccccc3n2)cc1` [Compound 89, 2-((2-((4-ethylphenethyl)amino)quinazolin-4-yl)amino)ethan-1-ol]: 2.73 µM, 6.1 µM and 3.48 µM.
The matching figures for `CCc1ccc(CCNc2nc(NCCCO)c3ccccc3n2)cc1` [Compound 93, 3-((2-((4-ethylphenethyl)amino)quinazolin-4-yl)amino)propan-1-ol]: 2.65 µM, 10.1 µM and 4.43 µM.
For `OCCCNc1nc(NCCc2ccc(F)cc2)nc2ccccc12` [Compound 95, 3-((2-((4-fluorophenethyl)amino)quinazolin-4-yl)amino)propan-1-ol], the IC50 was found to be 2.78 µM with A2780 (ovarian) (Homo sapiens, A2780, 72 h); 1.76 µM with A549 (NSCLC) (Homo sapiens, A549, 72 h); 2.62 µM in series [1] (Homo sapiens, SK-N-SH, 72 h).
Regarding `CN(C)CCNc1nc(-c2ccsc2)nc2ccccc12` [Compound 96, N^1,N^1-dimethyl-N^2-(2-(thiophen-3-yl)quinazolin-4-yl)ethane-1,2-diamine], the concentration for half-maximal inhibition (IC50) in the series with A2780 (ovarian) (Homo sapiens, A2780, 72 h) turned out to be 5.52 µM; in the series with A549 (NSCLC) (Homo sapiens, A549, 72 h), 6.7 µM; in series [1] (Homo sapiens, SK-N-SH, 72 h), 8.77 µM.
On to `CN(C)CCNc1nc(-c2ccc[nH]2)nc2ccccc12` [Compound 97, N^1-(2-(1H-pyrrol-2-yl)quinazolin-4-yl)-N^2,N^2-dimethylethane-1,2-diamine], for which the IC50 with A2780 (ovarian) (Homo sapiens, A2780, 72 h) stood at 3.07 µM; in the series with A549 (NSCLC) (Homo sapiens, A549, 72 h) it was 4.99 µM; in series [1] (Homo sapiens, SK-N-SH, 72 h), 8.54 µM.
For `CN(C)CCNc1nc(-c2cc[nH]c2)nc2ccccc12` [Compound 98, N^1-(2-(1H-pyrrol-3-yl)quinazolin-4-yl)-N^2,N^2-dimethylethane-1,2-diamine] the same measures were 1.03 µM, 5.21 µM and 3.93 µM.
For `FC(F)(F)c1cccc(CCNc2nc(NCCN3CCNCC3)c3ccccc3n2)c1` [Compound 112, N^4-(2-(piperazin-1-yl)ethyl)-N^2-(3-(trifluoromethyl)phenethyl)quinazoline-2,4-diamine] the same measures were 0.767 µM, 0.938 µM and 0.46 µM.
The matching figures for `Cc1cccc(CCNc2nc(NCCN3CCN(C)CC3)c3ccccc3n2)c1` [Compound 124, N^2-(3-methylphenethyl)-N^4-(2-(4-methylpiperazin-1-yl)ethyl)quinazoline-2,4-diamine]: 2.74 µM, 2.25 µM and 0.68 µM.
For the molecule `CN1CCN(CCNc2nc(NCCc3cccc(Cl)c3)nc3ccccc23)CC1` [Compound 125, N^2-(3-chlorophenethyl)-N^4-(2-(4-methylpiperazin-1-yl)ethyl)quinazoline-2,4-diamine], the IC50 in the series with A2780 (ovarian) (Homo sapiens, A2780, 72 h) was determined as 0.968 µM; in the series with A549 (NSCLC) (Homo sapiens, A549, 72 h), 1.62 µM; in series [1] (Homo sapiens, SK-N-SH, 72 h), 0.73 µM.
The matching figures for `CC(C)c1ccc(CCNc2nc(NCCN3CCN(C)CC3)c3ccccc3n2)cc1` [Compound 128, N^2-(4-isopropylphenethyl)-N^4-(2-(4-methylpiperazin-1-yl)ethyl)quinazoline-2,4-diamine]: 0.606 µM, 0.943 µM and 0.57 µM.
For `CN1CCN(CCNc2nc(NCCc3ccc(C(C)(C)C)cc3)nc3ccccc23)CC1` [Compound 129, N^2-(4-(tert-butyl)phenethyl)-N^4-(2-(4-methylpiperazin-1-yl)ethyl)quinazoline-2,4-diamine] the same measures were 0.316 µM, 1 µM and 0.42 µM.
For `CCC1=C[C@@H]2CN(C1)Cc1c([nH]c3ccccc13)[C@@](C(=O)OC)(c1cc3c(cc1OC)N(C)[C@H]1[C@@](O)(C(=O)OC)[C@H](OC(C)=O)[C@]4(CC)C=CCN5CC[C@]31[C@@H]54)C2` [vinorelbine, reference compound], the IC50 in series [2] was determined as 4 nM.
Regarding “N^4-(2-(dimethylamino)ethyl)-N^2-(3-(trifluoromethyl)phenethyl)quinazoline-2,4-diamine [Compound 64]”, the IC50 in the series on A2780 (ovarian) was 2.38 µM; in the series with A549 (NSCLC) it was 2.87 µM; in series [1] (72 hours), 1.45 µM.
